This passage reports IC50 and viability, T/C results from PubChem BioAssay AID2060901 (Molecular Pharmacology Branch, DTP, NCI, 2025).

The test concerns 422866-222-R5-J1-PDC complex spheroids viability. Nature of the test: Anticancer human tumor 422866-222-R5-J1-PDC patient-derived pancreatic adenocarcinoma cell line growth inhibition [RAS]. To be noted: for IC50: curve of first compound; for viability, T/C: stronger effect = lower value. From the text: RAS pathway inhibitors in Combinations in Complex Spheroids
A high-throughput screen of multi-cell type tumor spheroids was designed to identify active combinations of RAS pathway inhibitors and targeted small molecules. Complex spheroids include a stromal component modeled by human endothelial cells (HUVEC) and fibroblasts modeled by human mesenchymal stem cells (MSCs). The concentration ranges selected for each drug and investigational agent were based upon clinically achievable concentrations if the clinical Cmax of the agent was known.
Compounds. The drugs and investigational agents: abemaciclib (NSC768073), cobimetinib (NSC768068), divarasib (GDC6063, NSC841802), docetaxel (NSC628503), GDC-1971 (RLY-1971, NSC841576), gemcitabine (NSC613327), inavolisib (NSC800729), ipatasertib (NSC767898), KB-0742 (NSC834161), MRTX-1133 (NSC836407), osimertinib (NSC779217), RMC-4630 (NSC839698), RMC-6236 (NSC851965), RMC-6291 (NSC852671), Ro-3306 (NSC812927), sapanisertib (NSC764658), SN-38 (NSC673596), staurosporine (NSC755774), SY5609 (NSC837396), and tovorafenib (DAY101, NSC766906), were obtained from the National Cancer Institute (NCI) Developmental Therapeutics Program Chemical Repository. The FDA-approved anticancer drug set is available from the NCI Developmental Therapeutics Program. […] The stock solutions were prepared in dimethyl sulfoxide (DMSO, Sigma-Aldrich, St. Louis, MO, cat. D2650) at 800-fold the tested concentration and stored at -70 degrees C prior to their use. All drugs and investigational agents were tested over a range starting from a high concentration at or near the clinical Cmax and decreasing in half-log increments. If the clinical Cmax for an agent had not been determined, the highest concentration tested was 10 microM.
Cell Culture. All cells were maintained in an incubator at 37 degrees C and 5% CO2 with 95% humidity. The PDC lines were cultured according to standard operating procedures established by the NCI PDMR. All PDCs were thawed and cultured in Matrigel-coated flasks prepared with a working solution of 1X Ham's F-12 nutrient mix, without supplementation (Invitrogen, Waltham, MA, cat. 11765054), 100 U/mL penicillin-streptomycin (Invitrogen, cat. 15140122), and 2.5% Matrigel (Corning Inc., Corning, NY, cat. 354248) for the first three passages. The 362531-283-R-J2-PDC and 782815-120-R-J1-PDC lines were cultured in 6C/Colon 1B media, which includes advanced DMEM/F-12 (Thermo Fisher Scientific, cat. 12634028), 10 mM HEPES (Thermo Fisher Scientific, cat. 15630080), 1X GlutaMAX supplement (Thermo Fisher Scientific, cat. 35050061), 0.1 mg/mL primocin (InvivoGen, San Diego, CA, cat. ant-pm-2), 10% defined fetal bovine serum, heat inactivated (HyClone Laboratories Inc., Logan, UT, cat. SH30070.03HI), 50% L-WRN conditioned media (ATCC, cat. CRL-3276), 1.25 mM N-Acetyl-L-cysteine (Sigma-Aldrich, cat. A9165), 10 mM nicotinamide (Sigma-Aldrich, cat. N0636), 1X B-27 supplement (Thermo Fisher Scientific, cat. 17504044), 1X N-2 supplement (Thermo Fisher Scientific, cat. 17502048), 50 ng/mL human EGF (Thermo Fisher Scientific, cat. PHG0311), and 10 microM Y-27632 dihydrochloride (Tocris Bioscience, cat. 1254). The K12877-001-R-J1-PDC line was cultured in 6I media, which includes all 6C/Colon 1B media plus 10 ng/mL human FGF-10 (PeproTech, cat. 100-26), 1 ng/mL human FGF-2 (PeproTech, cat. 100-18B), 1 µM prostaglandin E2 (Tocris Bioscience, cat. 2296), […] hydrocortisone (Sigma-Aldrich, cat. H4001), and […] bovine insulin (Sigma-Aldrich, cat. I6634). The K86415-001-R-J1-PDC line was cultured in 6D media, which includes all 6C/Colon 1B media components minus the L-WRN conditioned media. The 485176-168-R4-J1-PDC was cultured in PANC media, which includes all 6C/Colon 1B media plus 100 ng/mL human FGF-10 (PeproTech, cat. 100-26), 500 nM SB-431542 (Selleckchem, cat. S1067), and 10 nM gastrin (Tocris Bioscience, cat. 3006). […]

Structures are written as SMILES.
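Further: spheroids exposed to compounds for 7 days.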

As a reminder, the IC50 is the midpoint of a concentration-inhibition curve. A word on the viability, T/C: it is the ratio of treated to control. Consider `CCC(CC)c1cc(NC2CCC(N)C2)n2nccc2n1` (configuration not stated) + C#Cc1c(F)ccc2cc(O)cc(-c3ncc4c(N5CC6CCC(C5)N6)nc(OCC56CCCN5CC(F)C6)nc4c3F)c12, for which the IC50 is 1860 nM (second compound 0.0316 µM); 1690 nM (second compound 0.1 µM); 1340 nM (second compound 0.316 µM); 466 nM (second compound 1 µM); less than 31.6 nM (second compound 3.16 µM); less than 31.6 nM (second compound 10 µM). The viability, T/C runs as follows: (second compound 0.0316 µM, first compound 0.0316 µM) 97.8%; (second compound 0.0316 µM, first compound 0.1 µM) 104%; (second compound 0.0316 µM, first compound 0.316 µM) 118%; (second compound 0.0316 µM, first compound 1 µM) 75.7%; (second compound 0.0316 µM, first compound 3.16 µM) 19.7%; (second compound 0.0316 µM, first compound 10 µM) 36.2%. Further, the viability, T/C (second compound 0.1 µM, first compound 0.0316 µM) is 99%; the viability, T/C (second compound 0.1 µM, first compound 0.1 µM) was 125%; the viability, T/C (second compound 0.1 µM, first compound 0.316 µM) was 98.2%; the viability, T/C (second compound 0.1 µM, first compound 1 µM) is 71.9%; the viability, T/C (second compound 0.1 µM, first compound 3.16 µM) was 12.5%; the viability, T/C (second compound 0.1 µM, first compound 10 µM) was 35.3%. The viability, T/C was 75% (second compound 0.316 µM, first compound 0.0316 µM); 85.1% (second compound 0.316 µM, first compound 0.1 µM); 83.4% (second compound 0.316 µM, first compound 0.316 µM); 58.5% (second compound 0.316 µM, first compound 1 µM); 12.3% (second compound 0.316 µM, first compound 3.16 µM); 38.6% (second compound 0.316 µM, first compound 10 µM). Further, the viability, T/C is 50.2% (second compound 1 µM, first compound 0.0316 µM); 57.9% (second compound 1 µM, first compound 0.1 µM); 47.8% (second compound 1 µM, first compound 0.316 µM); 46.1% (second compound 1 µM, first compound 1 µM); 12.7% (second compound 1 µM, first compound 3.16 µM); 35.3% (second compound 1 µM, first compound 10 µM). Also, the viability, T/C was 35.6% (second compound 3.16 µM, first compound 0.0316 µM); 28.6% (second compound 3.16 µM, first compound 0.1 µM); 33.3% (second compound 3.16 µM, first compound 0.316 µM); 33.9% (second compound 3.16 µM, first compound 1 µM); 10.5% (second compound 3.16 µM, first compound 3.16 µM); 39.9% (second compound 3.16 µM, first compound 10 µM). Also, the viability, T/C is 21.7% (second compound 10 µM, first compound 0.0316 µM); 24.9% (second compound 10 µM, first compound 0.1 µM); 30.2% (second compound 10 µM, first compound 0.316 µM); 27.6% (second compound 10 µM, first compound 1 µM); 9.17% (second compound 10 µM, first compound 3.16 µM); 35% (second compound 10 µM, first compound 10 µM).

Take `Cc1nc(N2CCC3(CC2)COC(C)C3N)c(CO)nc1Sc1ccnc(N)c1Cl` (configuration not stated): the viability, T/C runs as follows: (compound 0.1 µM) 65% [middle of 4 runs]; (compound 0.316 µM) 51% [middle of 4 runs]; (compound 1 µM) 52.8% [middle of 4 runs]; (compound 3.16 µM) 41.1% [middle of 4 runs]; (compound 10 µM) 43.5% [middle of 4 runs].
